Test results: patent publication US6451767B1, “Benzylmaltotriosides as inhibitors of smooth muscle cell proliferation” (Wyeth, priority 1998, dated 2002)

Legend:
[1] = tested on: Porcine Smooth Muscle Cell; test: Cell proliferation using 3H thymidine incorporation; format: cell-based; conditions: for inhibition at 500 µM: Sus scrofa, read-out: Porcine Smooth Muscle Cell Antiproliferation, % inhibition; for IC50: serum/growth factor stimulated cells, 3H thymidine incorporation, 24-36 h, read-out: Porcine Smooth Muscle Cell Antiproliferation IC50
Experimental: Effects of Compounds on Cell Proliferation Using ^3H Thymidine Incorporation
Human and porcine smooth muscle cells were tested in early passage (generally passage 3-7) at sub-confluent conditions. Cultures were grown in 16 mm (24 well) multi-well culture dishes in medium 199 supplemented with 10% fetal bovine serum and 2% antibiotic/antimycotic. At sub-confluence, the cells were placed in a defined serum free medium (AIM-V; Gibco) for 24-48 h prior to initiating the experimental protocol.
Compounds were added to each well at 50 fold dilution (20 μL/well) and the plates were incubated for 24-36 h at 37° C. in 5% CO2. Compounds were initially dissolved in 50% ethanol and serially diluted into media. Compounds were routinely evaluated at concentrations from 1 to 100 μM. As a control, grade II porcine intestinal mucosal heparin (sodium salt) was routinely evaluated in all cell preparations at concentrations from 0.1 to 100 μg/mL.
At the completion of the test procedure, plates were placed on ice, washed three times with ice cold phosphate buffered saline (PBS) and incubated in ice cold 10% trichloroacetic acid (TCA) got 30 min to remove acid soluble proteins. Solution was transferred to scintillation vials containing 0.4 N HCl (500 μL/vial to neutralize NaOH) and each well was rinsed two times with water (500 μL) for a total volume of 2 mL/vial.
Data was obtained, in triplicate, for both control and experimental samples. Control (100%) data was obtained from maximally stimulated cells, as the result of growth factor or serum stimulation. Experimental data was obtained from cells maximally stimulated with growth factor or serum and treated with compound. Data are expressed as an IC50 in Table I below.

Compound | melting point | inhibition at 500 µM [1] | IC50 [1]
CC(=O)Nc1cc(COC2OC(CO)C(OC3OC(CO)C(OC4OC(CO)C(O)C(O)C4O)C(O)C3O)C(O)C2O)ccc1Cl [Example 3, N-[5-(β-D-maltotriosyloxymethyl)-2-chloro-phenyl]-acetamide] | 135 to 148 °C | 10% | –
N-[5-(Deca-O-acetyl-β-D-maltotriosyloxymethyl)-2-chloro-phenyl]-acetamide [Example 2] | – | – | 22.5 µM
N-[5-(Deca-O-sulfo-β-D-maltotriosyloxymethyl)-2-chloro-phenyl]-acetamide decasodium salt [Example 4] | – | – | 112 µM
Nc1cc(COC2OC(CO)C(OC3OC(CO)C(OC4OC(CO)C(O)C(O)C4O)C(O)C3O)C(O)C2O)ccc1Cl [Example 5, 5-(β-D-maltotriosyloxymethyl)-2-chloro-phenylamine] | 95 to 134 °C | 25% | –
5-(Deca-O-acetyl-β-D-maltotriosyloxymethyl)-2-chloro-1-nitrobenzene [Example 1] | – | – | 1.8 µM
